17 molecules from patent US11773078B2, “Furin inhibitors” (Glaxosmithkline Intellectual Property Development Limited, priority 2018, dated 2023) can be followed below.

Structures can show the parent of a compound that is named as a salt.

Assay [1] has as its target T1, furin (endogenous protease) in U20S cells (Homo sapiens, UniProt P09958).
T1 construct: the endogenous protease cleaves GFP; endogenous in cells; host or cells: U2OS cells transduced with a BacMam reporter
The assay is described as follows: Furin cell-based assay (image-based, Golgi-targeted GFP with BMP10 furin/PCSK cleavage site).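 Note: Read-out is mean GFP fluorescence of Golgi puncta per cell by high-content imaging, retained when furin inhibited, over an eleven-point 0.00017–10 µM series, four-parameter fit.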 The settings on record: 24-hour incubation, read-out: furin golgi cell pXC50 (converted).

Assay [2] concerns the target T2, Furin (108-574-Tev-Flag-His) enzyme (Homo sapiens, UniProt P09958).
T2 construct: Furin (108-574-Tev-Flag-His) enzyme was expressed and purified from CHO cells; TEV cleavage site (C); FLAG (C); His (C); made in house; host or cells: CHO cells
Kind of assay: Furin enzyme assay. In kind it is biochemical. The conditions noted are these: for IC50: read-out: furin enzyme pIC50 (converted). Put shortly:
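Compounds ran as 11-point threefold dilutions (0.00017–10 μM final) against 40 pM furin, purified from CHO cells, for 2 h at room temperature. Buffer: 100 mM HEPES pH7.5 with 1 mM CaCl2 and 0.005% Triton X-100. Envision readout. Four-parameter curve gives pXC50.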

T1 sequence (P09958 108-794): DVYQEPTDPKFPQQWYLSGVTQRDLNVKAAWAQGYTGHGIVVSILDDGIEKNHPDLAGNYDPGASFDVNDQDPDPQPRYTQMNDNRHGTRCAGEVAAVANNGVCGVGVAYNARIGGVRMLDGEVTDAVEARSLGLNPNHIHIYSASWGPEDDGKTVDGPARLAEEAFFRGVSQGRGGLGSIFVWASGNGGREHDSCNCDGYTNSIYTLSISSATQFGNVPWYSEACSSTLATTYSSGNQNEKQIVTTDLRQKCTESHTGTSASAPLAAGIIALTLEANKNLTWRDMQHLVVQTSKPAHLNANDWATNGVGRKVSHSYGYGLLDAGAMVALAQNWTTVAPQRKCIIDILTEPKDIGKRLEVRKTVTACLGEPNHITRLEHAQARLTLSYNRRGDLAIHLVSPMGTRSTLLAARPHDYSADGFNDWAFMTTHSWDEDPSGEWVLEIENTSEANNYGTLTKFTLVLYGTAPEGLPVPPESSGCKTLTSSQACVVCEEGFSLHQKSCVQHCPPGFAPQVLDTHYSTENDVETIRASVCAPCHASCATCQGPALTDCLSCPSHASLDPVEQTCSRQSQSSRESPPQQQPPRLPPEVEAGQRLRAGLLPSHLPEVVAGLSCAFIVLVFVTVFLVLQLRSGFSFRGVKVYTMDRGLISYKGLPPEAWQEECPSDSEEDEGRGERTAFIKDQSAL
T2 sequence (P09958 108-574): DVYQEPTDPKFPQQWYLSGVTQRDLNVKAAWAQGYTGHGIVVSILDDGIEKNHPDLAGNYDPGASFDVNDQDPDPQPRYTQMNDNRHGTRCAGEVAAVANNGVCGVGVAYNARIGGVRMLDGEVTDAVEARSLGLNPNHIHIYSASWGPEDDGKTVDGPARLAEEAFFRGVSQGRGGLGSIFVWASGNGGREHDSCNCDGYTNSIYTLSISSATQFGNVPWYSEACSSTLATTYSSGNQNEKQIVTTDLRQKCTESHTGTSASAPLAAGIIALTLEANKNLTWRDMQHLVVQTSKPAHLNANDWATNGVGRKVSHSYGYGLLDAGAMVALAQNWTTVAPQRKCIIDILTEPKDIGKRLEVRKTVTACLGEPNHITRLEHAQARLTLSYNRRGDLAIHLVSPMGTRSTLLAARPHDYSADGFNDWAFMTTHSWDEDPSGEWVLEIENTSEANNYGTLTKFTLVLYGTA

As to `CC(=O)NCC1CCN(Cc2cc(Oc3ccc(N4CCN(CCS(=O)(=O)O)CC4)nc3)nc(-c3cc(Cl)cc(Cl)c3)c2)CC1` [Example 287, 2-(4-(5-((4-((4-(acetamidomethyl)piperidin-1-yl)methyl)-6-(3,5-dichlorophenyl)pyridin-2-yl)oxy)pyridin-2-yl)piperazin-1-yl)ethanesulfonic acid], in assay [1], the EC50 is 631 nM. Also, in assay [2], the IC50 is 2 nM.

For the molecule `O=C(O)CC1CCN(Cc2cc(Oc3ccc(N4C[C@@H]5C[C@H]4CN5)nc3)nc(-c3cc(Cl)cc(Cl)c3)c2)CC1` [Example 187, 2-(1-((2-((6-((1S,4S)-2,5-diazabicyclo[2.2.1]heptan-2-yl)pyridin-3-yl)oxy)-6-(3,5-dichlorophenyl)pyridin-4-yl)methyl)piperidin-4-yl)acetic acid], in assay [1], the EC50 was 79.4 nM. For the same molecule, the IC50 in assay [2] was 1.26 nM.

Take `CC(=O)NCC1CCN(Cc2cc(Oc3ccc(N4CCN(CC5(CO)CC5)CC4)nc3)nc(-c3cc(Cl)cc(Cl)c3)c2)CC1` [Example 34, N-((1-((2-(3,5-Dichlorophenyl)-6-((6-(4-((1-(hydroxymethyl)cyclopropyl)methyl)piperazin-1-yl)pyridin-3-yl)oxy)pyridin-4-yl)methyl)piperidin-4-yl)methyl)acetamide]: in assay [1], the EC50 is 5.01 nM. Besides, the “furin enzyme pIC50” value in assay [2] was found to be 9.4.

For `C[C@H]1CN(c2ncc(Oc3cc(CN4CCC(CC(=O)O)CC4)cc(-c4cc(Cl)cc(Cl)c4)n3)cn2)CCN1` [Example 159, (S)-2-(1-((2-(3,5-Dichlorophenyl)-6-((2-(3-methylpiperazin-1-yl)pyrimidin-5-yl)oxy)pyridin-4-yl)methyl)piperidin-4-yl)acetic acid], the EC50 in assay [1] is 25.1 nM. Further, the “furin enzyme pIC50” value in assay [2] turned out to be 8.5.

As to `CC(CCN1CCN(c2ncc(Oc3cc(CN4CCC(CC(=O)O)CC4)cc(-c4cc(Cl)cc(Cl)c4)n3)cn2)CC1)[S+](C)[O-]` (stereo not shown) [Example 204, 2-(1-((2-(3,5-Dichlorophenyl)-6-((2-(4-(3-(methylsulfinyl)butyl)piperazin-1-yl)pyrimidin-5-yl)oxy)pyridin-4-yl)methyl)piperidin-4-yl)acetic acid], the EC50 in assay [1] is 31.6 nM. Besides, in assay [2], the “furin enzyme pIC50” value is reported as 8.7.

With `O=C(O)CC1CCN(Cc2cc(Oc3ccc(N4CCN5CCC4C5)nn3)nc(-c3cc(Cl)cc(Cl)c3)c2)CC1` (stereo not shown) [Example 344, 2-(1-((2-((6-(1,4-diazabicyclo[3.2.1]octan-4-yl)pyridazin-3-yl)oxy)-6-(3,5-dichlorophenyl)pyridin-4-yl)methyl)piperidin-4-yl)acetic acid], the EC50 in assay [1] is 79.4 nM. The “furin enzyme pIC50” value in assay [2] was found to be 8.4.

For `COC(=O)NCC1CCN(Cc2cc(Oc3cnc(N4CCN(C[C@@H](C)O)CC4)nc3)nc(-c3cc(Cl)cc(Cl)c3)c2)CC1` [Example 312, (R)-methyl ((1-((2-(3,5-dichlorophenyl)-6-((2-(4-(2-hydroxypropyl)piperazin-1-yl)pyrimidin-5-yl)oxy)pyridin-4-yl)methyl)piperidin-4-yl)methyl)carbamate], the EC50 in assay [1] was 15.8 nM. Besides, the “furin enzyme pIC50” value in assay [2] amounted to 9.7.

Regarding `COC(=O)NCC1CCN(Cc2cc(Oc3ccc(N4CCN(C)CC4)nc3)nc(-c3cc(Cl)cc(Cl)c3)c2)CC1` [Example 65, methyl ((1-((2-(3,5-dichlorophenyl)-6-((6-(4-methylpiperazin-1-yl)pyridin-3-yl)oxy)pyridin-4-yl)methyl)piperidin-4-yl)methyl)carbamate], in assay [1], the EC50 is 20 nM. The “furin enzyme pIC50” value in assay [2] stood at 8.7.

Turning to `O=S(=O)(O)CC1CCN(Cc2cc(Oc3ccc(N4CCNCC4)nc3)nc(-c3cc(Cl)cc(Cl)c3)c2)CC1` [Example 8, (1-((2-(3,5-Dichlorophenyl)-6-((6-(piperazin-1-yl)pyridin-3-yl)oxy)pyridin-4-yl)methyl)piperidin-4-yl)methanesulfonic acid, 4 hydrochloride], the EC50 in assay [1] is 200 nM. In addition, the “furin enzyme pIC50” value in assay [2] is 8.9.

Consider `CC(CCN1CCN(c2ncc(Oc3cc(CN4CC[C@@H]5[C@H](CC4)[C@H]5NS(C)(=O)=O)cc(-c4cc(Cl)cc(Cl)c4)n3)cn2)CC1)C(=O)O` (stereo partly drawn) [Example 81, 4-(4-(5-((6-(3,5-dichlorophenyl)-4-(((1R,7S,8r)-8-(methylsulfonamido)-4-azabicyclo[5.1.0]octan-4-yl)methyl)pyridin-2-yl)oxy)pyrimidin-2-yl)piperazin-1-yl)-2-methylbutanoic acid], for which the EC50 in assay [1] was 6.31 nM. Moreover, in assay [2], the “furin enzyme pIC50” value is listed as 9.4.

In the case of `CCC(CCN1CCN(c2ccc(Oc3cc(CN4CCC(CNC(C)=O)CC4)cc(-c4cc(Cl)cc(Cl)c4)n3)cn2)CC1)C(=O)O` (stereo not shown) [Example 188, 4-(4-(5-((4-((4-(acetamidomethyl)piperidin-1-yl)methyl)-6-(3,5-dichlorophenyl)pyridin-2-yl)oxy)pyridin-2-yl)piperazin-1-yl)-2-ethylbutanoic acid], in assay [1], the EC50 was 12.6 nM. For the same molecule, in assay [2], the “furin enzyme pIC50” value is on record as 8.8.

For the molecule `CC(=O)NCC1CCN(Cc2cc(Oc3cnc(N4CCN(CCS(C)(=O)=O)CC4)nc3)nc(-c3cc(Cl)cc(Cl)c3)c2)CC1` [Example 285, N-((1-((2-(3,5-dichlorophenyl)-6-((2-(4-(2-(methylsulfonyl)ethyl)piperazin-1-yl)pyrimidin-5-yl)oxy)pyridin-4-yl)methyl)piperidin-4-yl)methyl)acetamide], the EC50 in assay [1] was 63.1 nM. Also, the “furin enzyme pIC50” value in assay [2] was 8.1.

Regarding `NCCNc1ccc(Oc2cc(CN3CCOCC3)cc(-c3cc(Cl)cc(Cl)c3)c2)cn1` [Example 99, N^1-(5-((3′,5′-Dichloro-5-(morpholinomethyl))-[1,1′-biphenyl]-3-yl)oxy)pyridin-2-yl)ethane-1,2-diamine, 3 hydrochloride], in assay [1], the EC50 is 251 nM. Besides, the “furin enzyme pIC50” value in assay [2] was found to be 7.2.

Regarding `CC(=O)NCC1CCN(Cc2cc(Oc3cnc(N)c(F)c3)cc(-c3cc(Cl)cc(Cl)c3)c2)CC1` [Example 46, N-((1-((5-((6-Amino-5-fluoropyridin-3-yl)oxy)-3′,5′-dichloro-[1,1′-biphenyl]-3-yl)methyl)piperidin-4-yl)methyl)acetamide, 2 hydrochloride], the EC50 in assay [1] is 501 nM. Further, the “furin enzyme pIC50” value in assay [2] worked out at 7.

For `COC(=O)NCC1CCN(Cc2cc(Oc3cnc(N4CCN5CCC4C5)nc3)nc(-c3cc(Cl)cc(Cl)c3)c2)CC1` (stereo not shown) [Example 336, methyl ((1-((2-((2-(1,4-diazabicyclo[3.2.1]octan-4-yl)pyrimidin-5-yl)oxy)-6-(3,5-dichlorophenyl)pyridin-4-yl)methyl)piperidin-4-yl)methyl)carbamate], the EC50 in assay [1] was 3.98 nM. For the same molecule, in assay [2], the “furin enzyme pIC50” value stood at 9.1.

Regarding `CN1CCN(c2ncc(Oc3cc(CN4CCC(CC(=O)O)CC4)cc(-c4cc(Cl)cc(Cl)c4)n3)cn2)CC(C)(O)C1` (stereo not shown) [Example 146, 2-(1-((2-(3,5-dichlorophenyl)-6-((2-(6-hydroxy-4,6-dimethyl-1,4-diazepan-1-yl)pyrimidin-5-yl)oxy)pyridin-4-yl)methyl)piperidin-4-yl)acetic acid], the EC50 in assay [1] was 15.8 nM. Further, the “furin enzyme pIC50” value in assay [2] is reported as 8.5.

For `CC(=O)NCC1CCN(Cc2cc(Oc3cnc(N4CCN(C(C)CO)CC4)cn3)nc(-c3cc(Cl)cc(Cl)c3)c2)CC1` (stereo not shown) [Example 393, N-((1-((2-(3,5-dichlorophenyl)-6-((5-(4-(1-hydroxypropan-2-yl)piperazin-1-yl)pyrazin-2-yl)oxy)pyridin-4-yl)methyl)piperidin-4-yl)methyl)acetamide], the EC50 in assay [1] is 2.51 nM. The “furin enzyme pIC50” value in assay [2] was 9.2.
